US6833389B2, “Use of thiamphenicol and derivatives thereof for the preparation of pharmaceutical compositions useful in the treatment of Chlamydia pneumoniae infections” (Zambon Group S.p.A., priority 2000, dated 2004)
≈ marks a conversion by molar mass, not a printed value. Read-outs that look alike come from different tables or passages of the source.

What was measured:
[1] = test system: Chlamydia pneumoniae; assay: MIC against Chlamydia pneumoniae strains in Hep-2 cell monolayers (inhibition of inclusion formation); format: cell-based
Protocol: Chlamydia pneumoniae TW183 and Chlamydia pneumoniae 2023 were obtained from American Type Culture Collection. The other strains (No. 9 isolated) were clinically isolated in the period 1997-1999. […] Monolayers of Hep-2 cells were prepared by seeding 2×10^5 cell/ml in EMEM with 10% fetal calf serum supplemented with L-glutammine, on 12 mm cover slips and left at 35° C., 5% CO2 for 24 to 48 hours for confluent growth. The growth medium was removed and Hep-2 monolayers were inoculated with the different strains at predetermined concentration calculated to give 3-5×10^2 inclusions for well. The monolayers, inoculated with Chlamydia pneumoniae were centrifuged at 1700 g for 60 minutes at 30° C. […] In positive control no antibiotic was added and negative control were considered wells not inoculated with Chlamydia pneumoniae. […] All tests were run in duplicate. The number of inclusions were counted and the MIC (the lowest concentration at which complete inhibition of inclusion formation was observed) was determined.

[2] = test system: Chlamydia pneumoniae; conditions: background statement; cited from earlier work
[3] = test system: Chlamydia trachomatis; conditions: literature (Ridgeway et al. 1979); markedly lower than erythromycin; cited from earlier work
[4] = Chlamydia pneumoniae, 72 h, MIC range over the 11 Chlamydia pneumoniae strains, Hep-2 cells, 3 days, read-out: MIC
[5] = Chlamydia pneumoniae, ATCC2023, strain ATCC 2023, test I, read-out: MIC
[6] = Chlamydia pneumoniae, strain 1 (clinical isolate), test I, read-out: MIC
[7] = Chlamydia pneumoniae, strain 2 (clinical isolate), test I, read-out: MIC
[8] = Chlamydia pneumoniae, strain 2 (clinical isolate), test II, read-out: MIC
[9] = Chlamydia pneumoniae, strain 3 (clinical isolate), test I, read-out: MIC
[10] = Chlamydia pneumoniae, strain 3 (clinical isolate), test II, read-out: MIC
[11] = Chlamydia pneumoniae, strain 4 (clinical isolate), test I, read-out: MIC
[12] = Chlamydia pneumoniae, strain 4 (clinical isolate), test II, read-out: MIC
[13] = Chlamydia pneumoniae, strain 5 (clinical isolate), test I, read-out: MIC
[14] = Chlamydia pneumoniae, strain 5 (clinical isolate), test II, read-out: MIC
[15] = Chlamydia pneumoniae, strain 6 (clinical isolate), test II, read-out: MIC
[16] = Chlamydia pneumoniae, strain 7 (clinical isolate), test I, read-out: MIC
[17] = Chlamydia pneumoniae, strain 7 (clinical isolate), test II, read-out: MIC
[18] = Chlamydia pneumoniae, strain 8 (clinical isolate), test I, read-out: MIC
[19] = Chlamydia pneumoniae, strain 8 (clinical isolate), test II, read-out: MIC
[20] = Chlamydia pneumoniae, strain 9 (clinical isolate), test I, read-out: MIC
[21] = Chlamydia pneumoniae, strain TW 183, test II, read-out: MIC
[22] = Chlamydia pneumoniae, ATCC2023, strain ATCC 2023, test II, read-out: MIC
[23] = Chlamydia pneumoniae, strain 1 (clinical isolate), test II, read-out: MIC
[24] = Chlamydia pneumoniae, strain 6 (clinical isolate), test I, read-out: MIC
[25] = Chlamydia pneumoniae, strain 9 (clinical isolate), test II, read-out: MIC
[26] = Chlamydia pneumoniae, strain TW 183, test I, read-out: MIC
[27] = strain 4 (clinical isolate), test I
[28] = strain 7 (clinical isolate), test I
[29] = strain 7 (clinical isolate), test II
[30] = strain 8 (clinical isolate), test I
[31] = strain 8 (clinical isolate), test II
[32] = strain 9 (clinical isolate), test I
[33] = strain 1 (clinical isolate), test I
[34] = strain 1 (clinical isolate), test II
[35] = strain 2 (clinical isolate), test I
[36] = strain 2 (clinical isolate), test II
[37] = strain 3 (clinical isolate), test I
[38] = strain 3 (clinical isolate), test II
[39] = strain 4 (clinical isolate), test II
[40] = strain 5 (clinical isolate), test I
[41] = strain 5 (clinical isolate), test II
[42] = strain 6 (clinical isolate), test I
[43] = strain 6 (clinical isolate), test II
[44] = strain 9 (clinical isolate), test II

CC1(C)S[C@@H]2[C@H](NC(=O)[C@H](N)c3ccc(O)cc3)C(=O)N2[C@H]1C(=O)O [Amoxicillin, amoxicillin]
MIC [1, 4]: > 16 µg/mL

CC[C@H]1OC(=O)[C@H](C)[C@@H](O[C@H]2C[C@@](C)(OC)[C@@H](O)[C@H](C)O2)[C@H](C)[C@@H](O[C@@H]2O[C@H](C)C[C@H](N(C)C)[C@H]2O)[C@](C)(O)C[C@@H](C)CN(C)[C@H](C)[C@@H](O)[C@]1(C)O [Azithromycin, azithromycin]
MIC [1, 4]: 0.06 to 0.5 µg/mL (≈ 0.0801 to 0.668 µM)
MIC [1, 5]: 0.06 µg/mL (≈ 0.0801 µM)
MIC [1, 6]: 0.5 µg/mL (≈ 0.668 µM)
MIC [1, 7]: 0.06 µg/mL (≈ 0.0801 µM)
MIC [1, 8]: 0.25 µg/mL (≈ 0.334 µM)
MIC [1, 9]: 0.06 µg/mL (≈ 0.0801 µM)
MIC [1, 10]: 0.06 µg/mL (≈ 0.0801 µM)
MIC [1, 11]: 0.5 µg/mL (≈ 0.668 µM)
MIC [1, 12]: 0.5 µg/mL (≈ 0.668 µM)
MIC [1, 13]: 0.25 µg/mL (≈ 0.334 µM)
MIC [1, 14]: 0.25 µg/mL (≈ 0.334 µM)
MIC [1, 15]: 0.25 µg/mL (≈ 0.334 µM)
MIC [1, 16]: 0.25 µg/mL (≈ 0.334 µM)
MIC [1, 17]: 0.25 µg/mL (≈ 0.334 µM)
MIC [1, 18]: 0.25 µg/mL (≈ 0.334 µM)
MIC [1, 19]: 0.25 µg/mL (≈ 0.334 µM)
MIC [1, 20]: 0.5 µg/mL (≈ 0.668 µM)
MIC [1, 21]: 0.25 µg/mL (≈ 0.334 µM)
activity in vitro against Chlamydia pneumoniae [2]: active

CO/N=C(\C(=O)N[C@@H]1C(=O)N2C(C(=O)O)=C(CSc3nc(=O)c(=O)[nH]n3C)CS[C@H]12)c1csc(N)n1 [Ceftriaxone, ceftriaxone]
MIC [1, 4]: > 16 µg/mL

CC[C@H]1OC(=O)[C@H](C)[C@@H](O[C@H]2C[C@@](C)(OC)[C@@H](O)[C@H](C)O2)[C@H](C)[C@@H](O[C@@H]2O[C@H](C)C[C@H](N(C)C)[C@H]2O)[C@](C)(OC)C[C@@H](C)C(=O)[C@H](C)[C@@H](O)[C@]1(C)O [Clarithromycin, clarithromycin]
MIC ([1]; Chlamydia pneumoniae): 0.125 µg/mL (≈ 0.167 µM)
MIC [1, 4]: 0.03 to 0.25 µg/mL (≈ 0.0401 to 0.334 µM)
MIC [1, 5]: 0.03 µg/mL (≈ 0.0401 µM)
MIC [1, 22]: 0.03 µg/mL (≈ 0.0401 µM)
MIC [1, 6]: 0.03 µg/mL (≈ 0.0401 µM)
MIC [1, 23]: 0.03 µg/mL (≈ 0.0401 µM)
MIC [1, 7]: 0.25 µg/mL (≈ 0.334 µM)
MIC [1, 8]: 0.03 µg/mL (≈ 0.0401 µM)
MIC [1, 9]: 0.03 µg/mL (≈ 0.0401 µM)
MIC [1, 10]: 0.03 µg/mL (≈ 0.0401 µM)
MIC [1, 12]: 0.06 µg/mL (≈ 0.0802 µM)
MIC [1, 13]: 0.03 µg/mL (≈ 0.0401 µM)
MIC [1, 14]: 0.03 µg/mL (≈ 0.0401 µM)
MIC [1, 24]: 0.03 µg/mL (≈ 0.0401 µM)
MIC [1, 25]: 0.03 µg/mL (≈ 0.0401 µM)
MIC [1, 26]: 0.03 µg/mL (≈ 0.0401 µM)
MIC [1, 27]: 0.125 µg/mL (≈ 0.167 µM)
MIC [1, 28]: 0.125 µg/mL (≈ 0.167 µM)
MIC [1, 29]: 0.125 µg/mL (≈ 0.167 µM)
MIC [1, 30]: 0.125 µg/mL (≈ 0.167 µM)
MIC [1, 31]: 0.125 µg/mL (≈ 0.167 µM)
MIC [1, 32]: 0.125 µg/mL (≈ 0.167 µM)
MIC ([1]; strain TW 183, test II): 0.125 µg/mL (≈ 0.167 µM)
activity in vitro against Chlamydia pneumoniae [2]: active

C[C@H]1c2cccc(O)c2C(=O)C2=C(O)[C@]3(O)C(=O)C(C(N)=O)=C(O)[C@@H](N(C)C)[C@@H]3[C@@H](O)[C@@H]21 [Doxycycline, doxycycline]
MIC [1, 4]: 0.06 to 0.25 µg/mL (≈ 0.135 to 0.563 µM)
MIC [1, 5]: 0.06 µg/mL (≈ 0.135 µM)
MIC [1, 22]: 0.06 µg/mL (≈ 0.135 µM)
MIC [1, 6]: 0.06 µg/mL (≈ 0.135 µM)
MIC [1, 23]: 0.125 µg/mL (≈ 0.281 µM)
MIC [1, 7]: 0.125 µg/mL (≈ 0.281 µM)
MIC [1, 8]: 0.125 µg/mL (≈ 0.281 µM)
MIC [1, 9]: 0.125 µg/mL (≈ 0.281 µM)
MIC [1, 10]: 0.125 µg/mL (≈ 0.281 µM)
MIC [1, 11]: 0.06 µg/mL (≈ 0.135 µM)
MIC [1, 12]: 0.06 µg/mL (≈ 0.135 µM)
MIC [1, 13]: 0.125 µg/mL (≈ 0.281 µM)
MIC [1, 14]: 0.06 µg/mL (≈ 0.135 µM)
MIC [1, 24]: 0.06 µg/mL (≈ 0.135 µM)
MIC [1, 15]: 0.06 µg/mL (≈ 0.135 µM)
MIC [1, 16]: 0.06 µg/mL (≈ 0.135 µM)
MIC [1, 17]: 0.06 µg/mL (≈ 0.135 µM)
MIC [1, 18]: 0.25 µg/mL (≈ 0.563 µM)
MIC [1, 19]: 0.06 µg/mL (≈ 0.135 µM)
MIC [1, 20]: 0.25 µg/mL (≈ 0.563 µM)
MIC [1, 25]: 0.25 µg/mL (≈ 0.563 µM)
MIC [1, 26]: 0.125 µg/mL (≈ 0.281 µM)
MIC [1, 21]: 0.25 µg/mL (≈ 0.563 µM)

CC(=O)N[C@@H](CS)C(=O)O.CS(=O)(=O)c1ccc([C@@H](O)[C@@H](COC(=O)CN)NC(=O)C(Cl)Cl)cc1 [TGA, thiamphenicol glycinate acetylcysteinate]
MIC [1, 33]: 0.03 µg/mL
MIC [1, 34]: 0.06 µg/mL
MIC [1, 35]: 0.03 µg/mL
MIC [1, 36]: 0.03 µg/mL
MIC [1, 37]: 0.125 µg/mL
MIC [1, 38]: 0.125 µg/mL
MIC [1, 27]: 0.25 µg/mL
MIC [1, 39]: 0.06 µg/mL
MIC [1, 40]: 0.125 µg/mL
MIC [1, 41]: 0.125 µg/mL
MIC [1, 42]: 0.03 µg/mL
MIC [1, 43]: 0.03 µg/mL
MIC [1, 28]: 0.03 µg/mL
MIC [1, 29]: 0.03 µg/mL
MIC [1, 30]: 0.125 µg/mL
MIC [1, 31]: 0.03 µg/mL
MIC [1, 32]: 0.125 µg/mL
MIC [1, 44]: 0.125 µg/mL
MIC ([1]; strain ATCC 2023, test I): 0.03 µg/mL
MIC ([1]; strain ATCC 2023, test II): 0.03 µg/mL
MIC ([1]; strain TW 183, test I): 0.06 µg/mL
MIC ([1]; strain TW 183, test II): 0.03 µg/mL

CN(C)[C@@H]1C(O)=C(C(N)=O)C(=O)[C@@]2(O)C(O)=C3C(=O)c4c(O)cccc4[C@@](C)(O)[C@H]3C[C@@H]12.Cl [Tetracycline, tetracycline hydrochloride]
MIC ([1]; MIC range over the 11 Chlamydia pneumoniae strains, Hep-2 cells, 3 days): 0.06 to 0.5 µg/mL
MIC [1, 33]: 0.06 µg/mL
MIC [1, 34]: 0.06 µg/mL
MIC [1, 35]: 0.06 µg/mL
MIC [1, 36]: 0.06 µg/mL
MIC [1, 37]: 0.125 µg/mL
MIC [1, 38]: 0.125 µg/mL
MIC [1, 27]: 0.125 µg/mL
MIC [1, 39]: 0.5 µg/mL
MIC [1, 40]: 0.125 µg/mL
MIC [1, 41]: 0.25 µg/mL
MIC [1, 42]: 0.06 µg/mL
MIC [1, 43]: 0.5 µg/mL
MIC [1, 28]: 0.125 µg/mL
MIC [1, 29]: 0.125 µg/mL
MIC [1, 30]: 0.06 µg/mL
MIC [1, 31]: 0.06 µg/mL
MIC [1, 32]: 0.06 µg/mL
MIC [1, 44]: 0.5 µg/mL
MIC ([1]; strain ATCC 2023, test I): 0.06 µg/mL
MIC ([1]; strain ATCC 2023, test II): 0.125 µg/mL
MIC ([1]; strain TW 183, test I): 0.06 µg/mL
MIC ([1]; strain TW 183, test II): 0.06 µg/mL

CS(=O)(=O)c1ccc([C@@H](O)[C@@H](CO)NC(=O)C(Cl)Cl)cc1 [thiamphenicol]
MIC [1, 4]: 0.03 to 0.25 µg/mL (≈ 0.0842 to 0.702 µM)
activity against Chlamydia trachomatis [3]: active
